According to article PMC6316070 (Marine Drugs, 2018):

Legend:
Settings in all cases: human
[1] = in vitro
Description: (§1) The in vitro cytotoxic effects of the novel compounds 1, 8, and 9 were evaluated on five human cancer cell lines using the MTT (3-(4,5-dimethylthiazol-2-yl)-2,5-diphenyltetrazolium bromide) method [32, 33, 34]. […] All cells were cultured in RPMI-1640 medium containing 10% fetal bovine serum (FBS), and kept in a humidified atmosphere containing 5% CO2 at 37 °C. […] In brief, the cell suspensions (200 μL, 5 × 10^4 cells/mL) were seeded into 96-well culture plates and kept at 37 °C for 12 h, then the sample solvents (20 μL) were added into each well and further cultured at 37 °C for 24 h. Subsequently, MTT (100 μg) was added into each well and incubated at 37 °C for 4 h. After removal of the 100 μL culture medium, the cells were lysed with 20% SDS-50% DMF (100 μL). The remaining lysates were subjected to measurements of the optical density at 595 nm with a 96-well microtiter plate reader. Reed and Muench’s method was used to calculate IC50 values [32].

[2] = in vitro; remark: listed apart in the source
Description: as §1

[3] = in vitro; remark: listed apart in the source
Description: as §1

[4] = in vitro; remark: listed apart in the source
Description: as §1

[5] = in vitro; remark: listed apart in the source
Description: as §1

Measured: IC50

CC(=O)OCC(C)=CCCC(C)(O)C1CCC(C)(O)C1C (stereo not shown) [Compound 8, Cyclonerodiol C]
> 40 µM: all assays above

CC1C(C(C)(O)CC=CC(C)(C)O)CCC1(C)O (stereo not shown) [Compound 9, Cyclonerodiol D]
> 40 µM: all assays above
